{"source": "patent US11773081B2", "about": "“Pharmaceutical composition for preventing or treating wound, comprising indirubin derivative as active ingredient” (CK Regeon Inc., priority 2018, dated 2023)", "test_system": "diabetic wound", "experiment": "Wound healing effect in diabetic wound animal model (Test Example 8)", "format": "in vivo, mouse", "description": "3-week-old male C57BL/6N mice (Koatech, South Korea) were used. After accustoming the mice for a week to normal feed, high-fat diet (Product Data—D12492; 60% kcal, hereinafter referred to as HFD) was given for 4 weeks. Then, a diabetes-induced animal model was prepared by intraperitoneally injecting 40 mg/kg streptozocin (Sigma) once daily for a week. The mice were kept in cages maintained at constant temperature (22±2° C.) and relative humidity (40-60%) with light/dark cycles of 12/12 hours.\n6 mice of the normal control group and 6 mice per test group of the diabetes-induced animal model of Test Example 7 were prepared. The hair on the back was removed and a 1.5×1.5 cm^2 wound was made on the hair-removed region.\nFor the normal control group, only 20 μL of an emulsion solution (Kollipore®EL:Tween 80:PEG 400 at a mixing weight ratio of 80:6:14) was applied to the wound site once daily for 14 days. For the negative control group, only 20 μL of the emulsion solution (Kollipore®EL:Tween 80:PEG 400 at a mixing weight ratio of 80:6:14) was applied to the wound site once daily for 14 days. For the test group, 20 μL of A3334 (Example 1) was applied to the wound site once daily for 14 days. Then, the wound site of the animal model was photographed and the wound area was measured on days 0, 1, 3, 7, 10 and 14 (FIG. 10). On day 14, after euthanizing the mouse with carbon dioxide, the wound site tissue was harvested and the histological structure was observed.\nA3334 (Example 1) was prepared by preparing an emulsion solution by mixing Kollipore®EL:Tween 80:PEG 400 at a mixing weight ratio of 80:6:14 and then dissolving the A3334 indirubin derivative synthesized in Example 1 to a concentration of 0.5 mM.\nThe wound closure rate (%) was calculated according to Equation 1. Wound closure rate (%)=[initial wound area on day 0−wound area on measurement day]/[initial wound area on day 0]×100 [Equation 1] […]"}
{"smiles": "COc1ccc2c(c1)/C(=C1/Nc3ccccc3/C1=N\\O)C(=O)N2", "note": "[Example 1, 5-methoxylindirubin-3′-oxime]", "values": [{"measurement": "healing of the wound site (wound closure rate)", "setting": "diabetes-induced C57BL/6N mouse, 1.5×1.5 cm^2 wound, 20 μL of 0.5 mM once daily for 14 days", "value": "healing of the wound site was promoted similarly to the normal control group"}, {"measurement": "re-epithelialization (H&E)", "setting": "diabetes-induced mouse, 14 days", "value": "fast re-epithelialization"}, {"measurement": "collagen synthesis (Van Gieson's stain, Picrosirius red)", "setting": "diabetes-induced mouse, vs normal and negative control group", "value": "increased collagen synthesis"}]}
